Data: patent US20250312258A1, “2,3-PYRROLIDINEDIONE CONJUGATES AND METHODS OF USING THEREOF” (North Carolina State University, priority 2022, published 2025)
Converted amounts (≈) assume the structure as drawn. Like-named read-outs stand apart in the source and are kept apart here.

Key:
[1] = test system: MRSA; assay: MIC against MRSA strain panel; assay type: cell-based; settings: Staphylococcus aureus, the 4th table, read-out: MIC
[2] = test system: MRSA 33591; assay: Broth microdilution MIC, MRSA 33591; assay type: cell-based; settings: Staphylococcus aureus, read-out: MIC (MRSA 33591)
[3] = test system: S. pneumoniae; assay: MIC against S. pneumoniae strain panel; assay type: cell-based; settings: Streptococcus pneumoniae, read-out: MIC
[4] = test system: MSSA; assay: MIC against MSSA strain panel; assay type: cell-based; settings: Staphylococcus aureus, the 4th table, read-out: MIC
[5] = test system: ATCC 29212 E. faecalis; assay: MIC against ATCC 29212 E. faecalis; assay type: cell-based; settings: Enterococcus faecalis, ATCC29212, ATCC 29212 E. faecalis, read-out: MIC
[6] = test system: VRSA; assay: MIC against VRSA (Table 2); assay type: cell-based; settings: Staphylococcus aureus, read-out: MIC (VRSA)
[7] = test system: VRE; assay: MIC / in vitro activity against VRE strain panel; assay type: cell-based, Enterococcus spp.; settings: Enterococcus, VRE, read-out: MIC
[8] = test system: S. aureus 29213; assay: Broth microdilution MIC, S. aureus 29213; assay type: cell-based, Staphylococcus aureus; settings: Staphylococcus aureus
[9] = test system: S. aureus 25923; assay: Broth microdilution MIC, S. aureus 25923; assay type: cell-based, Staphylococcus aureus; settings: Staphylococcus aureus, 25923; read-out: MIC (S. aureus 25923)

MIC ([1]; 6220 MRSA): 1 µg/mL (≈ 2.42 µM) | MIC ([1]; 6231 MRSA): 0.5 µg/mL (≈ 1.21 µM) | MIC ([1]; AR-978 MRSA): 1 µg/mL (≈ 2.42 µM) | MIC ([1]; AR-979 MRSA): 0.5 µg/mL (≈ 1.21 µM) | MIC ([1]; AR-993 MRSA): 1 µg/mL (≈ 2.42 µM) | MIC ([1]; AR-997 MRSA): 1 µg/mL (≈ 2.42 µM) | MIC [2]: 0.5 µg/mL (≈ 1.21 µM) | MIC ([3]; ATCC49619, ATCC 49619 S. pneumoniae, CA-MHB w/5% LHB, the 4th table): 0.25 µg/mL (≈ 0.605 µM) | MIC ([3]; ATCC49619, ATCC 49619 S. pneumoniae, the 7th table): 0.25 µg/mL (≈ 0.605 µM) | MIC ([3]; CO314937 S. pneumoniae, CA-MHB w/5% LHB, the 4th table): 0.25 µg/mL (≈ 0.605 µM) | MIC ([3]; CT3-5008 S. pneumoniae, the 7th table): 0.25 µg/mL (≈ 0.605 µM) | MIC ([3]; CT3-5803 S. pneumoniae, the 7th table): 0.25 µg/mL (≈ 0.605 µM) | MIC ([3]; CT3-8501 S. pneumoniae, the 7th table): 0.25 µg/mL (≈ 0.605 µM) | MIC ([3]; CT4-3048 S. pneumoniae, the 7th table): 0.25 µg/mL (≈ 0.605 µM) | MIC ([3]; CT4-9046 S. pneumoniae, the 7th table): ≤ 0.125 µg/mL | MIC ([3]; CT4-9693 S. pneumoniae, the 7th table): 0.25 µg/mL (≈ 0.605 µM) | MIC ([3]; CT5-6541 S. pneumoniae, the 7th table): 0.25 µg/mL (≈ 0.605 µM) | MIC ([3]; CT5-8032 S. pneumoniae, the 7th table): 0.25 µg/mL (≈ 0.605 µM) | MIC ([3]; CT5-9124 S. pneumoniae, the 7th table): 0.25 µg/mL (≈ 0.605 µM) | MIC ([3]; CT6-0670 S. pneumoniae, the 7th table): 0.25 µg/mL (≈ 0.605 µM) | MIC ([3]; CT6-7691 S. pneumoniae, the 7th table): 0.25 µg/mL (≈ 0.605 µM) | MIC ([3]; CT0200-2241 S. pneumoniae, the 7th table): 0.25 µg/mL (≈ 0.605 µM) | MIC ([3]; CT0200-2730 S. pneumoniae, the 7th table): 0.5 µg/mL (≈ 1.21 µM) | MIC ([3]; MD77773 S. pneumoniae, CA-MHB w/5% LHB, the 4th table): 0.25 µg/mL (≈ 0.605 µM) | MIC ([4]; VGP16-94 MSSA): 0.5 µg/mL (≈ 1.21 µM) | MIC ([4]; VGP16-95 MSSA): 1 µg/mL (≈ 2.42 µM) | MIC ([4]; VGP16-96 MSSA): 0.5 µg/mL (≈ 1.21 µM) | MIC ([4]; VGP16-97 MSSA): 0.5 µg/mL (≈ 1.21 µM) | MIC ([4]; VGP16-98 MSSA): 0.5 µg/mL (≈ 1.21 µM) | MIC ([4]; VGP16-99 MSSA): 1 µg/mL (≈ 2.42 µM) | MIC ([4]; VGP16-100 MSSA): 1 µg/mL (≈ 2.42 µM) | MIC ([4]; VGP16-101 MSSA): 1 µg/mL (≈ 2.42 µM) | MIC ([4]; VGP16-116 MSSA): 1 µg/mL (≈ 2.42 µM) | MIC ([4]; VGP16-117 MSSA): 1 µg/mL (≈ 2.42 µM) | MIC ([5]; the 4th table): 1 µg/mL (≈ 2.42 µM) | MIC ([5]; the 6th table): 4 µg/mL (≈ 9.67 µM) | MIC [6]: 2 µg/mL (≈ 4.84 µM) | MIC ([7]; 1593 (VRE), the 3rd table): 32 µg/mL (≈ 77.4 µM) | MIC ([7]; 1593 VRE, the 4th table): 32 µg/mL (≈ 77.4 µM) | MIC ([7]; 1751 (VRE), the 3rd table): 16 µg/mL (≈ 38.7 µM) | MIC ([7]; 1751 VRE, the 6th table): 16 µg/mL (≈ 38.7 µM) | MIC ([7]; 1772 VRE, the 6th table): 32 µg/mL (≈ 77.4 µM) | MIC ([7]; 1946 VRE, the 6th table): 32 µg/mL (≈ 77.4 µM) | MIC ([7]; 2059 VRE, the 6th table): 32 µg/mL (≈ 77.4 µM) | MIC ([7]; 2431 (VRE), the 3rd table): 32 µg/mL (≈ 77.4 µM) | MIC ([7]; 2431 VRE, the 6th table): 32 µg/mL (≈ 77.4 µM) | MIC ([7]; 2574 VRE, the 6th table): 32 µg/mL (≈ 77.4 µM) | MIC ([7]; 3053 VRE, the 6th table): 32 µg/mL (≈ 77.4 µM) | MIC ([7]; 3183 (VRE), the 3rd table): 16 µg/mL (≈ 38.7 µM) | MIC ([7]; 3183 VRE, the 6th table): 16 µg/mL (≈ 38.7 µM) | MIC ([7]; 3190 VRE, the 6th table): 32 µg/mL (≈ 77.4 µM) | MIC ([7]; 3191 VRE, the 6th table): 32 µg/mL (≈ 77.4 µM) | MIC ([7]; 3222 (VRE, the 3rd table)): 16 µg/mL (≈ 38.7 µM) | MIC ([7]; 3222 VRE, the 6th table): 16 µg/mL (≈ 38.7 µM) | MIC ([7]; 3235 VRE, the 6th table): 16 µg/mL (≈ 38.7 µM) | MIC ([7]; 3239 VRE, the 6th table): 32 µg/mL (≈ 77.4 µM) | MIC ([7]; 3241 VRE, the 6th table): 32 µg/mL (≈ 77.4 µM) | MIC ([7]; 3623 VRE, the 6th table): 32 µg/mL (≈ 77.4 µM) | MIC ([8]; 29213, read-out: MIC (S. aureus 29213)): 0.25 to 0.5 µg/mL (≈ 0.605 to 1.21 µM) | MIC ([8]; ATCC 29213 / MRSA, ATCC 29213 MRSA, the 4th table, read-out: MIC): 1 µg/mL (≈ 2.42 µM) | MIC ([8]; ATCC 29213 / MRSA, ATCC 29213 MRSA, the 5th table, read-out: MIC): 1 µg/mL (≈ 2.42 µM) | MIC [9]: 0.25 µg/mL (≈ 0.605 µM)
Structure (SMILES): CCC1C(c2ccc(C(F)(F)F)cc2)=C(O)C(=O)N1CCCNCCCCNC (centres unmarked) [Compound 8]
